Measured values reported in patent US20090029983A1, “NOVEL HETEROCYCLIC COMPOUNDS HAVING ANTI-HBV ACTIVITY” (priority 2005, published 2009).

System: HBV
Test: HBV screening assay (viral DNA in baculovirus-HBV transduced HepG2 cells)
Format: cell-based
Details: Hepatitis B virus, HepG2, 72 h, read-out: EC50 (antiviral activity), HBV-transduced HepG2 cells, three days with compound, viral DNA by ELISA
Experimental: HepG2 cells were transduced using a baculovirus to deliver the HBV genome essentially as previously described (Delaney et al. in Hepatology 1998; 28: 1134-1146). Transduced cells were cultured in supplemented EMEM media with 10% fetal bovine serum in a 5% CO2 incubator at 37° C. for three days in the presence of test compounds. The cells were lysed in a buffer containing 0.5% NP-40 and […] proteinase K. A solid-phase hybridization was performed to capture the viral DNA and to label the target DNA with Digoxigenin-labeled DNA probes. The viral DNA was detected by ELISA, using horseradish peroxidase-conjugated anti-digoxigenin antibodies.
The EC50 values were determined using ExcelFit software from the inhibition values of a titration curve for each compound. For CC50 determinations, the same titration of compounds was co-cultured with non-transduced HepG2 for three days under the conditions described above. The Promega CellTiter 96 Aqueous One Solution Cell Proliferation Assay was used to measure cell proliferation/viability. The CC50 values were determined using ExcelFit software from the inhibition values of the titration curve for each compound.

Structure (SMILES)	EC50
COC1CCCCN1CCCN1Cc2nc3sc(C(N)=O)c(N)c3c(-c3cccs3)c2C1 (centres unmarked) [Compound 26, 3-Amino-6-[3-(2-methoxy-piperidin-1-yl)-propyl]-4-thiophen-2-yl-6,7-dihydro-5H-1-thia-6,8-diaza-s-indacene-2-carboxylic acidamide]	> 10 µM
NC(=O)c1sc2nc3c(c(-c4cccs4)c2c1N)CN(CCCN1CCOCC1)C3 [Compound 27, 3-Amino-6-(3-morpholin-4-yl-propyl)-4-thiophen-2-yl-6,7-dihydro-5H-1-thia-6,8-diaza-s-indacene-2-carboxylic acid amide]	> 10 µM
CC(O)CNCCCN1Cc2nc3sc(C(N)=O)c(N)c3c(-c3cccs3)c2C1 (centres unmarked) [Compound 28, 3-Amino-6-[3-(2-hydroxy-propylamino)-propyl]-4-thiophen-2-yl-6,7-dihydro-5H-1-thia-6,8-diaza-s-indacene-2-carboxylic acidamide]	> 10 µM
NC(=O)c1sc2nc3c(c(-c4cccs4)c2c1N)CCNC3 [Compound 29, 3-Amino-4-thiophen-2-yl-5,6,7,8-tetrahydro-1-thia-7,9-diaza-cyclopenta[b]naphthalene-2-carboxylic acidamide]	< 1 µM
CC(C)(C)OC(=O)N1CCc2c(nc3sc(C(N)=O)c(N)c3c2-c2cccs2)C1 [Compound 30, 3-Amino-7-tert-butyloxycarbonyl-4-thiophen-2-yl-5,6,7,8-tetrahydro-1-thia-7,9-diaza-cyclopenta[b]naphthalene-2-carboxylic acid amide]	> 10 µM
CC(C)(C)OC(=O)N1CCc2nc3sc(C(N)=O)c(N)c3c(-c3cccs3)c2C1 [Compound 32, 3-Amino-6-tert-butyloxycarbonyl-4-thiophen-2-yl-5,6,7,8-tetrahydro-thieno[2,3-b][1,6]naphthyridine-2-carboxylic acidamide]	> 10 µM
Cc1ccc(-c2c3c(nc4sc(C(N)=O)c(N)c24)CCN(Cc2ccccc2)C3)o1 [Compound 33, 3-Amino-6-benzyl-4-(5-methyl-furan-2-yl)-5,6,7,8-tetrahydro-thieno[2,3-b][1,6]naphthyridine-2-carboxylic acidamide]	> 10 µM
CC(=O)N1CCc2nc3sc(C(N)=O)c(N)c3c(-c3cccs3)c2C1 [Compound 34, 6-Acetyl-3-amino-4-thiophen-2-yl-5,6,7,8-tetrahydro-thieno[2,3-b][1,6]naphthyridine-2-carboxylic acid amide]	> 10 µM
CCOC1CCc2c1nc1sc(C(N)=O)c(N)c1c2-c1cccs1 (centres unmarked) [Compound 35, 3-Amino-7-ethoxy-4-thiophen-2-yl-6,7-dihydro-5H-cyclopenta[b]thieno[3,2-e]pyridine-2-carboxylic acid amide]	< 1 µM
NC(=O)c1sc2nc3c(c(-c4cccs4)c2c1N)CCC3CC(=O)O (centres unmarked) [Compound 36, 3-Amino-7-carboxymethyl-4-thiophen-2-yl-6,7-dihydro-5H-cyclopenta[b]thieno[3,2-e]pyridine-2-carboxylic acid amide]	> 10 µM
CC1CCc2c1nc1sc(C(N)=O)c(N)c1c2-c1cccs1 (centres unmarked) [Compound 37, 3-Amino-7-methyl-4-thiophen-2-yl-6,7-dihydro-5H-cyclopenta[b]thieno[3,2-e]pyridine-2-carboxylic acid amide]	< 1 µM
NC(=O)c1sc2nc3c(c(-c4cccs4)c2c1N)CCC3CC(=O)N1CCOCC1 (centres unmarked) [Compound 38, 3-Amino-7-(2-morpholin-4-yl-2-oxo-ethyl)-4-thiophen-2-yl-6,7-dihydro-5H-cyclopenta[b]thieno[3,2-e]pyridine-2-carboxylic acid amide]	> 10 µM
NC(=O)c1sc2nc3c(c(-c4cccs4)c2c1N)CCC3CC(=O)NCC(O)c1ccccc1 (centres unmarked) [Compound 39, 3-Amino-7-[(2-hydroxy-2-phenyl-ethylcarbamoyl)-methyl]-4-thiophen-2-yl-6,7-dihydro-5H-cyclopenta[b]thieno[3,2-e]pyridine-2-carboxylic acid amide]	> 10 µM
COC(=O)CC1CCc2c1nc1sc(C(N)=O)c(N)c1c2-c1cccs1 (centres unmarked) [Compound 40, 3-Amino-7-carbomethoxymethyl-4-thiophen-2-yl-6,7-dihydro-5H-cyclopenta[b]thieno[3,2-e]pyridine-2-carboxylic acid amide]	> 10 µM
CCOC(=O)CC1CCc2c1nc1sc(C(N)=O)c(N)c1c2-c1cccs1 (centres unmarked) [Compound 41, 3-Amino-7-carbethoxymethyl-4-thiophen-2-yl-6,7-dihydro-5H-cyclopenta[b]thieno[3,2-e]pyridine-2-carboxylic acid amide]	> 10 µM
CNC(=O)CC1CCc2c1nc1sc(C(N)=O)c(N)c1c2-c1cccs1 (centres unmarked) [Compound 42, 3-Amino-7-methylcarbamoylmethyl-4-thiophen-2-yl-6,7-dihydro-5H-cyclopenta[b]thieno[3,2-e]pyridine-2-carboxylic acid amide]	1 to 10 µM
Cc1ccc(CNC(=O)CC2CCc3c2nc2sc(C(N)=O)c(N)c2c3-c2cccs2)o1 (centres unmarked) [Compound 43, 3-Amino-7-{[(5-methyl-furan-2-ylmethyl)-carbamoyl]-methyl}-4-thiophen-2-yl-6,7-dihydro-5H-cyclopenta[b]thieno[3,2-e]pyridine-2-carboxylic acid amide]	> 10 µM
COc1ccccc1CNC(=O)CC1CCc2c1nc1sc(C(N)=O)c(N)c1c2-c1cccs1 (centres unmarked) [Compound 44, 3-Amino-7-[(2-methoxy-benzylcarbamoyl)-methyl]-4-thiophen-2-yl-6,7-dihydro-5H-cyclopenta[b]thieno[3,2-e]pyridine-2-carboxylic acid amide]	> 10 µM
NC(=O)c1sc2nc3c(c(-c4cccs4)c2c1N)CCC3CC(=O)NCc1ccccn1 (centres unmarked) [Compound 45, 3-Amino-7-{[(pyridin-2-ylmethyl)-carbamoyl]-methyl}-4-thiophen-2-yl-6,7-dihydro-5H-cyclopenta[b]thieno[3,2-e]pyridine-2-carboxylic acid amide]	> 10 µM
NC(=O)c1sc2nc3c(c(-c4cccs4)c2c1N)CCC3CC(=O)NCCc1ccccn1 (centres unmarked) [Compound 46, 3-Amino-7-[(2-pyridin-2-yl-ethylcarbamoyl)-methyl]-4-thiophen-2-yl-6,7-dihydro-5H-cyclopenta[b]thieno[3,2-e]pyridine-2-carboxylic acid amide]	> 10 µM
NC(=O)c1sc2nc3c(c(-c4cccs4)c2c1N)CCC3CC(=O)NCc1ccc(C(F)(F)F)cc1 (centres unmarked) [Compound 47, 3-Amino-4-thiophen-2-yl-7-[(4-trifluoromethyl-benzylcarbamoyl)-methyl]-6,7-dihydro-5H-cyclopenta[b]thieno[3,2-e]pyridine-2-carboxylic acid amide]	> 10 µM
CC(C)CCNC(=O)CC1CCc2c1nc1sc(C(N)=O)c(N)c1c2-c1cccs1 (centres unmarked) [Compound 48, 3-Amino-7-[(3-methyl-butylcarbamoyl)-methyl]-4-thiophen-2-yl-6,7-dihydro-5H-cyclopenta[b]thieno[3,2-e]pyridine-2-carboxylic acid amide]	> 10 µM
CN(C)C(=O)CC1CCc2c1nc1sc(C(N)=O)c(N)c1c2-c1cccs1 (centres unmarked) [Compound 49, 3-Amino-7-dimethylcarbamoylmethyl-4-thiophen-2-yl-6,7-dihydro-5H-cyclopenta[b]thieno[3,2-e]pyridine-2-carboxylic acid amide]	> 10 µM
NC(=O)c1sc2nc3c(c(-c4cccs4)c2c1N)CCC3CC(=O)NC1CCC1 (centres unmarked) [Compound 50, 3-Amino-7-cyclobutylcarbamoylmethyl-4-thiophen-2-yl-6,7-dihydro-5H-cyclopenta[b]thieno[3,2-e]pyridine-2-carboxylic acid amide]	> 10 µM
NC(=O)c1sc2nc3c(c(-c4cccs4)c2c1N)CCC3CC(=O)NC1CCCCC1 (centres unmarked) [Compound 51, 3-Amino-7-cyclohexylcarbamoylmethyl-4-thiophen-2-yl-6,7-dihydro-5H-cyclopenta[b]thieno[3,2-e]pyridine-2-carboxylic acid amide]	> 10 µM
NC(=O)c1sc2nc3c(c(-c4cccs4)c2c1N)CCC3CC(=O)N1CCC(O)CC1 (centres unmarked) [Compound 52, 3-Amino-7-[2-(4-hydroxy-piperidin-1-yl)-2-oxo-ethyl]-4-thiophen-2-yl-6,7-dihydro-5H-cyclopenta[b]thieno[3,2-e]pyridine-2-carboxylic acid amide]	> 10 µM
NC(=O)c1sc2nc3c(c(-c4cccs4)c2c1N)CCC3CC(=O)N1CCN(c2ccccn2)CC1 (centres unmarked) [Compound 53, 3-Amino-7-[2-oxo-2-(4-pyridin-2-yl-piperazin-1-yl)-ethyl]-4-thiophen-2-yl-6,7-dihydro-5H-cyclopenta[b]thieno[3,2-e]pyridine-2-carboxylic acid amide]	> 10 µM
CCOC(=O)N1CCC(NC(=O)CC2CCc3c2nc2sc(C(N)=O)c(N)c2c3-c2cccs2)CC1 (centres unmarked) [Compound 54, 4-[2-(3-Amino-2-carbamoyl-4-thiophen-2-yl-6,7-dihydro-5H-cyclopenta[b]thiano[3,2-e]pyridin-7-yl)-acetylamino]-piperidine-1-carboxylic acid ethyl ester]	> 10 µM
CN1CCCC1CCNC(=O)CC1CCc2c1nc1sc(C(N)=O)c(N)c1c2-c1cccs1 (centres unmarked) [Compound 55, 3-Amino-7-{[2-(1-methyl-pyrrolidin-2-yl)-ethylcarbamoyl]-methyl}-4-thiophen-2-yl-6,7-dihydro-5H-cyclopenta[b]thieno[3,2-e]pyridine-2-carboxylic acid amide]	> 10 µM
